The text below walks through data of patent US9447039B2, “Indole carboxamide derivatives and uses thereof” (priority 2012, dated 2016).

Converted amounts (≈) assume the structure as drawn.

This test deals with Mycobacterium tuberculosis H37Rv (ATCC #27294). Description: Minimum Inhibitory Concentration (MIC50) determination. In kind it is cell-based. The settings on record: 120 h. The procedure: Mycobacterium tuberculosis H37Rv (ATCC #27294) (Mtb) strain was maintained in Middlebrook 7H9 broth medium supplemented with 0.05% Tween 80 and 10% ADS supplement. ADS supplement contains 5% bovine serum albumin fraction V. 2% D-dextrose and 0.8% of sodium chloride. Middlebrook 7H11 agar medium supplemented with 10% OADC (oleic acid, albumin, dextrose and catalase) was used as solid media for growing Mtb. Stock solutions of the compounds were prepared using 90% DMSO.
Minimum Inhibitory Concentration (MIC50) Determination
In Table 5 below, MIC50 is defined as the lowest concentration of the compound that inhibited 50% growth of the wild type strain compared to untreated controls. Test compounds were two or three fold serially diluted in duplicates and spotted by mosquito HTS to 384-well clear plates, resulting in 10 dilutions of each compound. A volume of 50 μl of Mtb culture (final OD600 of 0.02) was added to each well, and the assay plates were incubated at 37° C. for 5 days. Growth of bacteria was measured by reading absorbance at 600 nm using a Spectramax M2 spectrophotometer. MIC50 values were determined by using Activity Base software.

For orientation: MIC50 means the lowest concentration that inhibits either 50% of growth or 50% of the strains tested, depending on the study. A high value points to weaker potency. On to `C[C@H]1CCCC[C@H]1NC(=O)c1cc2c(F)cc(F)cc2[nH]1` [Example 4BA, 4,6-Difluoro-N-((1R,2S)-2-methylcyclohexyl)-1H-indole-2-carboxamide], for which the MIC50 is 0.28 µM (≈ 0.0819 µg/mL).
Under `O=C(NC1CCCCC1)c1cc2c(F)cc(F)cc2[nH]1` [Example 4BB, N-Cyclohexyl-4,6-difluoro-1H-indole-2-carboxamide] stands over 20 µM.
The molecule `C[C@H]1CCCC[C@H]1NC(=O)c1cc2c(C(F)(F)F)cc(C(F)(F)F)cc2[nH]1` [Example 4BC, N-((1R,2S)-2-Methylcyclohexyl)-4,6-bis(trifluoromethyl)-1H-indole-2-carboxamide] returned an MIC50 of 1.6 µM (≈ 0.628 µg/mL).
`Cc1ccc2[nH]c(C(=O)NC3CCCCC3)c(C)c2c1` [Example 4BD, N-cyclohexyl-3,5-dimethyl-1H-indole-2-carboxamide] yielded an MIC50 of 3.51 µM (≈ 0.949 µg/mL).
The molecule `C#CC1CCCCC1NC(=O)c1cc2c(Cl)cc(Cl)cc2[nH]1` (stereo not drawn) [Example 4BE, 4,6-Dichloro-N-(2-ethynylcyclohexyl)-1H-indole-2-carboxamide] displayed an MIC50 of 0.22 µM (≈ 0.0738 µg/mL).
For `CC1CCC(NC(=O)c2cc3ccc(F)cc3[nH]2)CC1` (stereo not drawn) [Example 4BF, 6-Fluoro-N-(4-methylcyclohexyl)-1H-indole-2-carboxamide] the value was 1.62 µM (≈ 0.444 µg/mL); for `CC1CCC(NC(=O)c2cc3c(F)cccc3[nH]2)CC1` (stereo not drawn) [Example 4BG, 4-Fluoro-N-(4-methylcyclohexyl)-1H-indole-2-carboxamide], 2.13 µM (≈ 0.584 µg/mL); for `Cc1cc(C)c2cc(C(=O)N[C@@H]3CCC[C@@H](C)[C@@H]3C)[nH]c2c1` [Example 4C, N-((1R,2S,3R)-2,3-Dimethylcyclohexyl)-4,6-dimethyl-1H-indole-2-carboxamide], 0.03 µM (≈ 0.00895 µg/mL).
For `Cc1cc(C)c2cc(C(=O)N[C@H]3CC[C@H](C(C)C)CC3)[nH]c2c1` [Example 4D, N-(trans-4-Isopropylcyclohexyl)-4,6-dimethyl-1H-indole-2-carboxamide] the value was 0.03 µM (≈ 0.00937 µg/mL).
As for `Cc1cc(C)c2cc(C(=O)N[C@H]3CCC[C@H](C)[C@H]3C)[nH]c2c1` [Example 4E, N-((1S,2R,3S)-2,3-Dimethylcyclohexyl)-4,6-dimethyl-1H-indole-2-carboxamide], the MIC50 is 0.08 µM (≈ 0.0239 µg/mL).
Under `CC1CCC(NC(=O)c2cc3c(F)cc(F)cc3[nH]2)CC1` (stereo not drawn) [Example 4F, 4,6-Difluoro-N-(4-methylcyclohexyl)-1H-indole-2-carboxamide] stands 0.37 µM (≈ 0.108 µg/mL).
Molecule `CC1CCC(NC(=O)c2cc3c(Cl)cc(Cl)cc3[nH]2)CC1` (stereo not drawn) [Example 4G, 4,6-Dichloro-N-(4-methylcyclohexyl)-1H-indole-2-carboxamide] gave an MIC50 of 0.057 µM (≈ 0.0185 µg/mL).
Under `CC1CCC(NC(=O)c2cc3c(C(F)(F)F)cc(C(F)(F)F)cc3[nH]2)CC1` (stereo not drawn) [Example 4H, N-(4-Methylcyclohexyl)-4,6-bis(trifluoromethyl)-1H-indole-2-carboxamide] stands 0.32 µM (≈ 0.126 µg/mL); under `Cc1cc(C)c2cc(C(=O)N[C@H]3CCC[C@@H](C)[C@H]3C)[nH]c2c1` [Example 4I, N-((1S,2R,3R)-2,3-Dimethylcyclohexyl)-4,6-dimethyl-1H-indole-2-carboxamide], 0.02 µM (≈ 0.00597 µg/mL).
Molecule `C[C@H]1CCCC[C@H]1NC(=O)c1cc2c(Cl)cc(Cl)cc2[nH]1` [Example 4J, 4,6-Dichloro-N-((1R,2S)-2-methylcyclohexyl)-1H-indole-2-carboxamide] came in with an MIC50 of 0.035 µM (≈ 0.0114 µg/mL).
Under `Cc1cc(C)c2cc(C(=O)N[C@@H]3CCC[C@@H]3C)[nH]c2c1` [Example 4K, 4,6-Dimethyl-N-((1R,2S)-2-methylcyclopentyl)-1H-indole-2-carboxamide] stands 0.69 µM (≈ 0.187 µg/mL); under `Cc1cc(C)c2cc(C(=O)NC3CCCCC3O)[nH]c2c1` (stereo not drawn) [Example 4L, N-(2-Hydroxycyclohexyl)-4,6-dimethyl-1H-indole-2-carboxamide], 2.92 µM (≈ 0.837 µg/mL).
Under `Cc1cc(C)c2cc(C(=O)NC3CCCCC3C(F)(F)F)[nH]c2c1` (stereo not drawn) [Example 4M, 4,6-Dimethyl-N-(2-(trifluoromethyl)cyclohexyl)-1H-indole-2-carboxamide] stands 0.585 µM (≈ 0.198 µg/mL); under `COC1CCCCC1NC(=O)c1cc2c(C)cc(C)cc2[nH]1` (stereo not drawn) [Example 4N, N-(2-Methoxycyclohexyl)-4,6-dimethyl-1H-indole-2-carboxamide], 5.78 µM (≈ 1.74 µg/mL).
For `Cc1cc(C)c2cc(C(=O)NC3CCCCC3C(C)C)[nH]c2c1` (stereo not drawn) [Example 4O, N-(2-Isopropylcyclohexyl)-4,6-dimethyl-1H-indole-2-carboxamide] the value was 0.765 µM (≈ 0.239 µg/mL); for `O=C(NC1CCC(F)(F)CC1)c1cc2c(Cl)cc(Cl)cc2[nH]1` [Example 4P, 4,6-Dichloro-N-(4,4-difluorocyclohexyl)-1H-indole-2-carboxamide], 0.565 µM (≈ 0.196 µg/mL); for `Cc1cc(C)c2cc(C(=O)NC3CCCCC3C#N)[nH]c2c1` (stereo not drawn) [Example 4Q, N-(2-Cyanocyclohexyl)-4,6-dimethyl-1H-indole-2-carboxamide], 2.06 µM (≈ 0.608 µg/mL).
`C[C@H]1CC[C@@H](NC(=O)c2cc3c(Cl)cc(Cl)cc3[nH]2)CC1` [Example 4R, 4,6-Dichloro-N-(cis-4-methylcyclohexyl)-1H-indole-2-carboxamide] showed an MIC50 of 0.14 µM (≈ 0.0455 µg/mL). This MIC50 is about 15-fold lower than that of the molecule before.
The molecule `C[C@H]1CC[C@H](NC(=O)c2cc3c(Cl)cc(Cl)cc3[nH]2)CC1` [Example 4S, 4,6-Dichloro-N-(trans-4-methylcyclohexyl)-1H-indole-2-carboxamide] returned an MIC50 of 0.14 µM (≈ 0.0455 µg/mL).
Molecule `CC1CCC(NC(=O)c2cc3c(Cl)ccc(Cl)c3[nH]2)CC1` (stereo not drawn) [Example 4U, 4,7-Dichloro-N-(4-methylcyclohexyl)-1H-indole-2-carboxamide] gave an MIC50 of 8.42 µM (≈ 2.74 µg/mL).
In turn, `CC1CCC(NC(=O)c2cc3ccc(Cl)cc3[nH]2)CC1` (stereo not drawn) [Example 4V, 6-Chloro-N-(4-methylcyclohexyl)-1H-indole-2-carboxamide] gave an MIC50 of 0.2 µM (≈ 0.0582 µg/mL).
In turn, `CC1CCC(NC(=O)c2cc3ccc(Cl)c(Cl)c3[nH]2)CC1` (stereo not drawn) [Example 4W, 6,7-Dichloro-N-(4-methylcyclohexyl)-1H-indole-2-carboxamide] had an MIC50 of 0.72 µM (≈ 0.234 µg/mL). This MIC50 is about 3.6-fold higher than that of the molecule before.
For `CC1CCC(NC(=O)c2cc3cccc(Cl)c3[nH]2)CC1` (stereo not drawn) [Example 4X, 7-Chloro-N-(4-methylcyclohexyl)-1H-indole-2-carboxamide] the value was 0.9 µM (≈ 0.262 µg/mL).
For `CC1CCC(NC(=O)c2cc3c(Cl)cccc3[nH]2)CC1` (stereo not drawn) [Example 4Y, 4-Chloro-N-(4-methylcyclohexyl)-1H-indole-2-carboxamide] the value was 0.22 µM (≈ 0.064 µg/mL); for `Cc1ccc2cc(C(=O)N[C@@H]3CCCC[C@@H]3C)[nH]c2c1` [Example 4Z, 6-Methyl-N-((1R,2S)-2-methylcyclohexyl)-1H-indole-2-carboxamide], 0.36 µM (≈ 0.0973 µg/mL).
For the molecule `O=C(NC1CCC(C(F)(F)F)CC1)c1cc2c(Cl)cc(Cl)cc2[nH]1` (stereo not drawn) [Example 5A, 4,6-Dichloro-N-(4-(trifluoromethyl)-cyclohexyl)-1H-indole-2-carboxamide], the MIC50 turned out to be 0.305 µM (≈ 0.116 µg/mL).
For `O=C(NC1CCC(C(F)(F)F)CC1)c1cc2c(F)cc(F)cc2[nH]1` (stereo not drawn) [Example 5B, 4,6-Difluoro-N-(4-(trifluoromethyl)-cyclohexyl)-1H-indole-2-carboxamide] the value was 1.19 µM (≈ 0.41 µg/mL); for `Cc1cc(Nc2ccccc2)cc2[nH]c(C(=O)N[C@@H]3CCCC[C@@H]3C)cc12` [Example 6A, 4-methyl-N-((1R,2S)-2-methylcyclohexyl)-6-(phenylamino)-1H-indole-2-carboxamide], 0.145 µM (≈ 0.0524 µg/mL).
